In ChEMBL document CHEMBL1201862, “PubChem BioAssay data set” (2004):
Structures can show the parent of a compound that is named as a salt.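 Protocol summary: plate cells (96-well), add compound at 5 concentrations, incubate 48 h, interpolate endpoints linearly. At the GI50, growth is halved.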 The source made the active and inactive calls. No stated cut-off is given here; in the data, active = GI50 up to about 1.1 µM and inactive = higher.

Assays:
Assay in all cases: inhibition of tumour cell growth, NCI panel, 48 h
U-251 = system: U-251
OVCAR-5 = system: OVCAR-5
HOP-92 = system: HOP-92
CCRF-CEM = system: CCRF-CEM
HL-60 = system: HL-60
HCC 2998 = system: HCC 2998
COLO 205 = system: COLO 205
NCI-H23 = system: NCI-H23
SW-620 = system: SW-620
PC-3 = system: PC-3
NCI/ADR-RES = system: NCI/ADR-RES
A498 = system: A498
HT-29 = system: HT-29
ACHN = system: ACHN
UACC-257 = system: UACC-257
SNB-19 = system: SNB-19
OVCAR-8 = system: OVCAR-8
NCI-H226 = system: NCI-H226
SK-MEL-2 = system: SK-MEL-2
NCI-H460 = system: NCI-H460

Measured: GI50

COc1cc(C2C3=C(N=C4SC(C(C)=O)=C(C)N42)c2ccccc2CC3)cc(OC)c1OC (stereo not drawn)
inactive: U-251 > 100 µM | OVCAR-5 > 100 µM | HOP-92 > 100 µM | CCRF-CEM > 100 µM | HL-60 30.8 µM | HCC 2998 > 100 µM | COLO 205 54.3 µM | NCI-H23 > 100 µM | SW-620 > 100 µM | PC-3 > 100 µM | NCI/ADR-RES 78.9 µM | A498 > 100 µM | HT-29 64.4 µM | ACHN > 100 µM | UACC-257 > 100 µM | SNB-19 > 100 µM | OVCAR-8 > 100 µM | NCI-H226 > 100 µM | SK-MEL-2 > 100 µM

COc1ccc(C2=C(N)c3c(Cl)cccc3C2=O)cc1
inactive: U-251 49.3 µM | OVCAR-5 > 100 µM | HOP-92 34.9 µM | CCRF-CEM > 100 µM | HL-60 > 100 µM | HCC 2998 > 100 µM | COLO 205 > 100 µM | NCI-H23 32.6 µM | SW-620 > 100 µM | PC-3 > 100 µM | NCI/ADR-RES 50 µM | A498 > 100 µM | HT-29 > 100 µM | ACHN > 100 µM | UACC-257 > 100 µM | SNB-19 22 µM | OVCAR-8 53.1 µM | NCI-H226 > 100 µM | SK-MEL-2 > 100 µM | NCI-H460 > 100 µM

Cc1cc(C)c(/C=C2\C(=O)Nc3ccccc32)[nH]1 [SEMAXANIB]
inactive: U-251 > 100 µM | OVCAR-5 > 69 µM | HOP-92 48.3 µM | CCRF-CEM > 100 µM | HL-60 7.28 µM | HCC 2998 38.8 µM | COLO 205 > 100 µM | NCI-H23 7.96 µM | SW-620 > 87.7 µM | PC-3 > 100 µM | NCI/ADR-RES > 100 µM | A498 > 100 µM | HT-29 35.6 µM | ACHN 66.2 µM | UACC-257 > 100 µM | SNB-19 > 100 µM | OVCAR-8 > 49.5 µM | NCI-H226 1.22 µM | SK-MEL-2 > 75.9 µM | NCI-H460 > 57.8 µM

C=CC1=C(C)c2cc3[nH]c(c4c5nc(cc6[nH]c(cc1n2)c(C)c6CC)C=C5C(=O)C4C(=O)OC)C(CCC(=O)OC/C=C(\C)CCCC(C)CCCC(C)CCCC(C)C)C3C.C=CC1=C(C)c2cc3[nH]c(c4c5nc(cc6[nH]c(cc1n2)c(C=O)c6CC)C=C5C(=O)C4C(=O)OC)C(CCC(=O)OC/C=C(\C)CCCC(C)CCCC(C)CCCC(C)C)C3C (stereo not drawn)
inactive: U-251 > 100 µM | OVCAR-5 > 100 µM | HOP-92 > 100 µM | CCRF-CEM 10 µM | HL-60 10 µM | HCC 2998 > 100 µM | COLO 205 43.9 µM | NCI-H23 > 100 µM | SW-620 > 100 µM | PC-3 > 100 µM | NCI/ADR-RES > 100 µM | A498 > 100 µM | HT-29 > 100 µM | ACHN > 100 µM | UACC-257 > 100 µM | SNB-19 > 100 µM | OVCAR-8 43 µM | NCI-H226 > 100 µM | SK-MEL-2 > 100 µM | NCI-H460 > 100 µM

CCCCOC(=O)CC(CC(=O)OCCCC)(OC(C)=O)C(=O)OCCCC [ACETYLTRIBUTYL CITRATE]
inactive: U-251 > 200 µM | OVCAR-5 > 200 µM | HOP-92 72.4 µM | CCRF-CEM 76.9 µM | HL-60 27.8 µM | HCC 2998 > 200 µM | COLO 205 60.1 µM | NCI-H23 60.8 µM | SW-620 > 130 µM | PC-3 132 µM | NCI/ADR-RES 91.6 µM | A498 > 200 µM | HT-29 60.8 µM | ACHN > 200 µM | UACC-257 47.9 µM | SNB-19 > 200 µM | OVCAR-8 > 190 µM | NCI-H226 24.6 µM | SK-MEL-2 > 200 µM | NCI-H460 162 µM

CCOC(=O)/C(SC#N)=C(/N)N1CCCC1
inactive: U-251 > 100 µM | OVCAR-5 > 100 µM | HOP-92 > 100 µM | CCRF-CEM > 100 µM | HL-60 > 100 µM | HCC 2998 > 100 µM | COLO 205 > 100 µM | NCI-H23 > 100 µM | SW-620 > 100 µM | PC-3 > 100 µM | NCI/ADR-RES > 100 µM | A498 > 60 µM | HT-29 > 100 µM | ACHN > 100 µM | UACC-257 > 100 µM | SNB-19 > 100 µM | OVCAR-8 > 100 µM | NCI-H226 > 100 µM | SK-MEL-2 > 100 µM | NCI-H460 > 100 µM

N#Cc1c(-c2ccc([N+](=O)[O-])cc2)c(C#N)c(=O)n(NS(=O)(=O)c2ccccc2)c1O
inactive: U-251 > 100 µM | OVCAR-5 > 100 µM | HOP-92 > 100 µM | CCRF-CEM > 100 µM | HL-60 > 100 µM | HCC 2998 > 100 µM | COLO 205 > 100 µM | SW-620 > 100 µM | PC-3 > 100 µM | NCI/ADR-RES > 100 µM | A498 > 100 µM | HT-29 > 100 µM | ACHN > 100 µM | UACC-257 > 100 µM | SNB-19 18.5 µM | OVCAR-8 > 100 µM | NCI-H226 > 100 µM | SK-MEL-2 > 100 µM | NCI-H460 > 100 µM

CN(C)N1C(=O)S/C(=C\c2ccc([N+](=O)[O-])cc2)C1=O
inactive: U-251 51.5 µM | OVCAR-5 > 100 µM | HOP-92 > 100 µM | CCRF-CEM 55.2 µM | HL-60 34 µM | HCC 2998 > 100 µM | COLO 205 > 100 µM | NCI-H23 > 100 µM | PC-3 > 100 µM | NCI/ADR-RES > 100 µM | A498 > 100 µM | HT-29 > 100 µM | ACHN > 100 µM | UACC-257 > 100 µM | OVCAR-8 99.3 µM | NCI-H226 > 100 µM | SK-MEL-2 > 100 µM | NCI-H460 > 100 µM

CC(NNC(=O)c1cc[n+]([BH2-]C#N)cc1)c1ccc(Cl)cc1Cl (stereo not drawn)
inactive: U-251 48.2 µM | OVCAR-5 42.2 µM | HOP-92 37.4 µM | CCRF-CEM 33.3 µM | HL-60 23.8 µM | HCC 2998 57.1 µM | COLO 205 60.7 µM | SW-620 42.8 µM | PC-3 33.6 µM | NCI/ADR-RES 31.6 µM | A498 > 100 µM | ACHN 42.7 µM | UACC-257 42.1 µM | SNB-19 41.4 µM | OVCAR-8 31.5 µM | NCI-H226 14.2 µM | SK-MEL-2 49.5 µM | NCI-H460 44.1 µM

CCC(=O)OCN(C)c1nc(N(C)COC(=O)CC)nc(N(C)COC(=O)CC)n1
inactive: U-251 > 100 µM | OVCAR-5 > 100 µM | HOP-92 89.5 µM | CCRF-CEM 24.8 µM | HL-60 > 10 µM | HCC 2998 24.6 µM | COLO 205 24.3 µM | NCI-H23 > 100 µM | SW-620 26.9 µM | PC-3 27.4 µM | NCI/ADR-RES 32.4 µM | A498 49 µM | HT-29 26.9 µM | UACC-257 38.9 µM | SNB-19 > 100 µM | OVCAR-8 69.3 µM | NCI-H226 85.5 µM | SK-MEL-2 18.2 µM | NCI-H460 33.4 µM
